# Assay results as given in patent US9409922B2, “Imidazopyridine macrocycles as inhibitors of human immunodeficiency virus replication” (priority 2014, dated 2016).
# pEC50: −log10 of the molar value.
# System: NL-RLuc virus
# Experiment: Inhibition of HIV replication: NL-RLuc reporter virus in MT-2 cells, luciferase readout
# Format: cell-based
# Details: Human immunodeficiency virus 1, MT2, 120 h, MT-2 cells infected with NL-RLuc virus, 5 days of incubation, 10% FBS, at least 2 experiments
# Description: Inhibition of HIV Replication:
# A recombinant NL-RLuc proviral clone was constructed in which a section of the nef gene from NL4-3 was replaced with the Renilla Luciferase gene. This virus is fully infectious and can undergo multiple cycles of replication in cell culture. In addition, the luciferous reporter provides a simple and easy method for quantitating the extent of virus growth and consequently, the antiviral activity of test compounds. The plasmid pNLRLuc contains the proviral NL-Rluc DNA cloned into pUC 18 at the PvuII site. The NL-RLuc virus was prepared by transfection of 293T cells with the plasmid pNLRLuc. Transfections were performed using the LipofectAMINE PLUS kit from Invitrogen (Carlsbad, Calif.) according to the manufacturer and the virus generated was titered in MT-2 cells. For susceptibility analyses, the titrated virus was used to infect MT-2 cells in the presence of compound, and after 5 days of incubation, cells were processed and quantitated for virus growth by the amount of expressed luciferase. Assay media was RPMI 1640 supplemented with 10% heat inactivated fetal bovine serum (FBS), 100 units/ml penicillin G/100 units/ml streptomycin, 10 mM HEPES buffer pH 7.55 and 2 mM L-glutamine. The results from at least 2 experiments were used to calculate the EC50 values. Luciferase was quantitated using the Dual Luciferase kit from Promega (Madison, Wis.). Susceptibility of viruses to compounds was determined by incubation in the presence of serial dilutions of the compound. The 50% effective concentration (EC50) was calculated by using the exponential form of the median effect equation where (Fa)=1/[1+(ED50/drug conc.)^m](Johnson V A, Byington R T. Infectivity Assay. In Techniques in HIV Research. ed. Aldovini A, Walker B D. 71-76. New York: Stockton Press. 1990).
row,Compound,pEC50
1,"Cc1c([C@H](OC(C)(C)C)C(=O)O)c2n3cc(nc3c1C)-c1cccc(c1)-c1cc(F)cc(F)c1O[C@@H](C)CCCCOC1(C)CCN2CC1 [Example 45, (2S)-2-(tert-Butoxy)-2-[(22S)-17,19-difluoro-4,5,22,28-tetramethyl-21,27-dioxa-1,7,34-triazahexacyclo[26.2.2.1^6,^9.1^10,^14.0^2,^7.0^15,^20]tetratriaconta-2,4,6(34),8,10(33),11,13,15(20),16,18-decaen-3-yl]acetic acid]",7.33
2,"Cc1cc2nc3cn2c(c1[C@H](OC(C)(C)C)C(=O)O)N1CCC(C)(CC1)OC/C=C\C[C@H](C)Oc1cc(F)c(F)cc1-c1cccc-3c1 [Example 12, (2S)-2-(tert-Butoxy)-2-[(22S)-17,18-difluoro-4,22,28-trimethyl-21,27-dioxa-1,7,34-triazahexacyclo[26.2.2.1^6,^9.1^10,^14.0^2,^7.0^15,^20]tetratriaconta-2,4,6(34),8,10(33),11,13,15(20),16,18,24-undecaen-3-yl]acetic acid]",8.52
3,"Cc1cc2nc3cn2c(c1[C@H](OC(C)(C)C)C(=O)O)N1CCC(C)(CC1)OC/C=C/C[C@H](C)Oc1c(F)cccc1-c1cccc-3c1 [Example 34, (2S)-2-(tert-Butoxy)-2-[(22S,24E)-19-fluoro-4,22,28-trimethyl-21,27-dioxa-1,7,34-triazahexacyclo[26.2.2.1^6,^9.1^10,^14.0^2,^7.0^15,^20]tetratriaconta-2,4,6(34),8,10(33),11,13,15(20),16,18,24-undecaen-3-yl]acetic acid]",8.52
4,"Cc1cc(F)c2c(c1)O[C@@H](C)CCCCOC1(C)CCN(CC1)c1c([C@H](OC(C)(C)C)C(=O)O)c(C)cc3nc(cn13)-c1cccc-2c1 [Example 21, (2S)-2-(tert-Butoxy)-2-[(22S)-16-fluoro-4,18,22,28-tetramethyl-21,27-dioxa-1,7,34-triazahexacyclo[26.2.2.1^6,^9.1^10,^14.0^2,^7.0^15,^20]tetratriaconta-2,4,6(34),8,10(33),11,13,15(20),16,18-decaen-3-yl]acetic acid]",8.30
5,Cc1cc2nc3cn2c(c1[C@H](OC(C)(C)C)C(=O)O)N1CCC(C)(CC1)OCCCCCOc1ccc(F)cc1Cc1nc-3[nH]c1Cl [Example 5],8.15
6,"Cc1c([C@H](OC(C)(C)C)C(=O)O)c2n3cc(nc3c1Br)-c1cccc(c1)-c1cccc(F)c1O[C@@H](C)CCCCOC1(C)CCN2CC1 [Example 36, (2S)-2-[(22S)-5-Bromo-19-fluoro-4,22,28-trimethyl-21,27-dioxa-1,7,34-triazahexacyclo[26.2.2.1^6,^9.1^10,^14.0^2,^7.0^15,^20]tetratriaconta-2,4,6(34),8,10(33),11,13,15(20),16,18-decaen-3-yl]-2-(tert-butoxy)acetic acid]",8.00
7,"Cc1cc2nc3cn2c(c1[C@H](OC(C)(C)C)C(=O)O)N1CCC(C)(CC1)OCCCC[C@H](C)Oc1cc(F)c(F)cc1-c1cccc-3c1 [Example 13, (2S)-2-(tert-Butoxy)-2-[(22S)-17,18-difluoro-4,22,28-trimethyl-21,27-dioxa-1,7,34-triazahexacyclo[26.2.2.1^6,^9.1^10,^14.0^2,^7.0^15,^20]tetratriaconta-2,4,6(34),8,10(33),11,13,15(20),16,18-decaen-3-yl]acetic acid]",8.10
8,"Cc1cc2nc3cn2c(c1[C@H](OC(C)(C)C)C(=O)O)N1CCC(C)(CC1)OCCCC[C@H](C)Oc1c(F)cccc1-c1cccc-3c1 [Example 35, (2S)-2-(tert-Butoxy)-2-[(22S)-19-fluoro-4,22,28-trimethyl-21,27-dioxa-1,7,34-triazahexacyclo[26.2.2.1^6,^9.1^10,^14.0^2,^7.0^15,^20]tetratriaconta-2,4,6(34),8,10(33),11,13,15(20),16,18-decaen-3-yl]acetic acid]",8.15
9,"Cc1cc2nc3cn2c(c1[C@H](OC(C)(C)C)C(=O)O)N1CCC(C)(CC1)OCCCC[C@H](C)Oc1ccc(F)cc1-c1cccc-3c1 [Example 10, (2S)-2-(tert-Butoxy)-2-[(22S)-17-fluoro-4,22,28-trimethyl-21,27-dioxa-1,7,34-triazahexacyclo[26.2.2.1^6,^9.1^10,^14.0^2,^7.0^15,^20]tetratriaconta-2,4,6(34),8,10(33),11,13,15(20),16,18-decaen-3-yl]acetic acid]",8.40
10,"Cc1cc2nc3cn2c(c1[C@H](OC(C)(C)C)C(=O)O)N1CCC(C)(CCCCCOc2ccccc2CNC3=O)CC1 [Example 1, (2S)-2-(tert-Butoxy)-2-{4,25-dimethyl-10-oxo-19-oxa-1,7,11,30-tetraazapentacyclo[23.2.2.1^6,^9.0^2,^7.0^13,^18]triaconta-2,4,6(30),8,13(18),14,16-heptaen-3-yl}acetic acid]",7.15
11,"Cc1c([C@H](OC(C)(C)C)C(=O)O)c2n3cc(nc3c1C)-c1cccc(c1)-c1c(ccc(F)c1F)O[C@@H](C)CCCCOC1(C)CCN2CC1 [Example 47, (2S)-2-(tert-Butoxy)-2-[(22S)-16,17-difluoro-4,5,22,28-tetramethyl-21,27-dioxa-1,7,34-triazahexacyclo[26.2.2.1^6,^9.1^10,^14.0^2,^7.0^15,^20]tetratriaconta-2,4,6(34),8,10(33),11,13,15(20),16,18-decaen-3-yl]acetic acid]",8.15
12,"Cc1ccc2c(c1)-c1cccc(c1)-c1cn3c(c([C@H](OC(C)(C)C)C(=O)O)c(C)cc3n1)N1CCC(C)(CC1)OC/C=C/C[C@H](C)O2 [Example 9, (2S)-2-(tert-Butoxy)-2-[(22S)-4,17,22,28-tetramethyl-21,27-dioxa-1,7,34-triazahexacyclo[26.2.2.1^6,^9.1^10,^14.0^2,^7.0^15,^20]tetratriaconta-2,4,6(34),8,10(33),11,13,15(20),16,18,24-undecaen-3-yl]acetic acid]",8.05
13,"Cc1cc2c(cc1F)-c1cccc(c1)-c1nc3cc(C)c([C@H](OC(C)(C)C)C(=O)O)c(n3c1Br)N1CCC(C)(CC1)OCCCC[C@H](C)O2 [Example 27, (2S)-2-[(22S)-8-Bromo-17-fluoro-4,18,22,28-tetramethyl-21,27-dioxa-1,7,34-triazahexacyclo[26.2.2.1^6,^9.1^10,^14.0^2,^7.0^15,^20]tetratriaconta-2,4,6(34),8,10(33),11,13,15(20),16,18-decaen-3-yl]-2-(tert-butoxy)acetic acid]",7.89
14,"Cc1ccc2c(c1)-c1cccc(c1)-c1cn3c(c([C@H](OC(C)(C)C)C(=O)O)c(C)cc3n1)N1CCC(C)(CC1)OCCCC[C@H](C)O2 [Example 8, (2S)-2-(tert-Butoxy)-2-[(22S)-4,17,22,28-tetramethyl-21,27-dioxa-1,7,34-triazahexacyclo[26.2.2.1^6,^9.1^10,^14.0^2,^7.0^15,^20]tetratriaconta-2,4,6(34),8,10(33),11,13,15(20),16,18-decaen-3-yl]acetic acid]",7.82
15,"Cc1cc2nc3cn2c(c1[C@H](OC(C)(C)C)C(=O)O)N1CCC(C)(CCCCCCOc2ccc(F)cc2CNC3=O)CC1 [Example 2, (2S)-2-(tert-Butoxy)-2-{15-fluoro-4,26-dimethyl-10-oxo-19-oxa-1,7,11,31-tetraazapentacyclo[24.2.2.1^6,^9.0^2,^7.0^13,^18]hentriaconta-2,4,6(31),8,13(18),14,16-heptaen-3-yl}acetic acid]",7.80
16,"Cc1ccc2c(c1)-c1cccc(c1)-c1nc3cc(C)c([C@H](OC(C)(C)C)C(=O)O)c(n3c1Cl)N1CCC(C)(CC1)OCCCC[C@H](C)O2 [Example 22, (2S)-2-(tert-Butoxy)-2-[(22S)-8-chloro-4,17,22,28-tetramethyl-21,27-dioxa-1,7,34-triazahexacyclo[26.2.2.1^6,^9.1^10,^14.0^2,^7.0^15,^20]tetratriaconta-2,4,6(34),8,10(33),11,13,15(20),16,18-decaen-3-yl]acetic acid]",7.62

# Same assay, conditions: MT-2 cells infected with NL-RLuc virus, 5 days of incubation, 10% FBS, at least 2 experiments
row,Compound,pEC50
1,"Cc1c([C@H](OC(C)(C)C)C(=O)O)c2n3cc(nc3c1C)-c1cccc(c1)-c1c(F)cc(F)cc1O[C@@H](C)CCCCOC1(C)CCN2CC1 [Example 43, (2S)-2-(tert-Butoxy)-2-[(22S)-16,18-difluoro-4,5,22,28-tetramethyl-21,27-dioxa-1,7,34-triazahexacyclo[26.2.2.1^6,^9.1^10,^14.0^2,^7.0^15,^20]tetratriaconta-2,4,6(34),8,10(33),11,13,15(20),16,18-decaen-3-yl]acetic acid]",7.96
2,"Cc1c([C@H](OC(C)(C)C)C(=O)O)c2n3cc(nc3c1C(C)O)-c1cccc(c1)-c1c(ccc(F)c1F)O[C@@H](C)CCCCOC1(C)CCN2CC1 (stereo partly drawn) [Example 50, (2S)-2-(tert-Butoxy)-2-[(22S)-16,17-difluoro-5-(1-hydroxyethyl)-4,22,28-trimethyl-21,27-dioxa-1,7,34-triazahexacyclo[26.2.2.1^6,^9.1^10,^14.0^2,^7.0^15,^20]tetratriaconta-2,4,6(34),8,10(33),11,13,15(20),16,18-decaen-3-yl]acetic acid]",8.00
